Consider 23 molecules from patent US11932636B2, “RAD51 inhibitors” (Cyteir Therapeutics, Inc., priority 2019, dated 2024).

This assay deals with Daudi cells (AID positive). Description: Compound primary screening: cell death in AID positive Daudi cells (Cell-Titer Glo, Day 7). The class given is cell-based. To be noted: Homo sapiens, 168 h; Daudi cells, AID positive; cell death on Day 7, Cell-Titer Glo; read-out: Cellular activity in AID + (Daudi). As for the experimental part: Example 149. Compound Primary Screening
AID expressing cells are dependent upon RAD51 for survival; inhibiting RAD51 in AID positive cells results in a cytotoxic effect.
A 96 well u-bottom plate was prepared by writing the experiment number, plate number, date and initials in the top right corner of the plate lid. With a sterile 300 ml reservoir, and 25 ml serological pipette, evaporation buffer media was pipetted into reservoir in 25 ml increments. Using the liquid handler, 150 ul of evaporation buffer media was pipetted from reservoir into rows A and H, and Columns 1 and 12 of the 96 well u-bottom plate. Cell cultures were counted to obtain the density of cells per ml, and the culture viability. The cell density information was used to obtain 1,000,000 cells from culture using a 5 mL serological pipette into an epi tube. The cell density information from the culture was used to calculate the number of cells and volume of media needed for the assay to seed 1250 cells in 130 ul of media per available culture well in the 96 well u-bottom plate. Rows B through F were used for cells (50 wells in total), with row G left for an empty media control. The calculation was overestimated by 10 mL to account for the dead volume in the 300 ml reservoir. Once the media volume was calculated, the appropriate volume of media was pipetted in 25 mL increments into the 250 mL bottle using a 25 mL serological pipette. The 250 ml bottle was capped tightly, and placed into a 37° C. water bath for 2 minutes. While the culture media was warming, 10 mL of fresh media was pipetted from the 500 mL culture media bottle into a sterile 25 mL reservoir. Using the Eppendorf multichannel pipette, 130 ul of media was pipetted from the 25 mL reservoir into row G of the 96 well u-bottom plate. Once the 250 mL bottle of media was warmed, the volume of culture needed was pipetted into the bottle, and mixed gently with a 25 mL serological pipette as to not create bubbles, and then the contents of the bottle were pipetted into a new 300 mL reservoir. Using the liquid handler, 130 ul of culture was pipetted from the 300 mL reservoir into rows B through F of the 96 well u-bottom plate. Once the culture was added, the plate was placed into a 37° C. incubator until the compound master plate was prepared for use.
Two 96 well u-bottom plates were prepared by writing the master plate name in the upper right corner of the plate lid. Labeling one DMSO master and the other Media Master. The compounds of interest were obtained from the laboratory freezer, and placed into a 25 well storage box with a lid, and set the box aside. The compounds were vortexed after thawing but before use. Using an automatic multichannel pipette, 20 ul of 100% DMSO was pipetted into wells B3-B11 through G3-G11 of the DMSO master plate. For each compound on the master plate, 50 ul of the compound were pipetted in the appropriate well of row 2 (reference plate map to determine appropriate well). A serial dilution was prepared beginning by aspirating 20 ul from row 2 and mixing with row 3, repeating until row 11 was reached. Using the liquid handler, 194 ul of Daudi media was dispensed into wells B2-B11 through G2-G11 of the Media master plate. Using the liquid handler, 6 ul from the DMSO master plate was aspirated and dispensed into the media master plate, mixing 100 ul twice.
Compounds from master plate were then added to the culture plate. The culture plates were removed from the incubator, and set inside the biosafety cabinet. Using a liquid handler, 20 ul from wells B2 to B11 through G2 to G11 of master plate were aspirated, and dispensed into wells B2 to B11 through G2 to G11 of culture plate. This set was continued with each culture plate. Once the culture plates acquired their 20 ul of compound dilutions, they were placed back into the incubator, until their reads on Day 7 of experiment.
Cell death was measured on Day 7 of the experiment using Cell-Titer Glo and a Promega Plate reader.

Where only a bound is given, the exact number is not on record here.

As for `CC(C)OC(=O)N[C@H]1CC[C@H](c2ncc(-c3ccc(-c4ccnc(C(F)(F)F)c4)cc3S(=O)(=O)NC(C)(C)C)s2)CC1` [Compound 22, isopropyl (trans-4-(5-(2-(N-(tert-butyl)sulfamoyl)-4-(2-(trifluoromethyl)pyridin-4-yl)phenyl)thiazol-2-yl)cyclohexyl)carbamate], the EC50 fell in the range of 1000 to 10000 nM. On to `CC(C)OC(=O)N[C@H]1CC[C@H](c2ncc(-c3ccc(O)cc3S(=O)(=O)NC(C)(C)C)s2)CC1` [Compound 23, isopropyl (trans-4-(5-(2-(N-(tert-butyl)sulfamoyl)-4-hydroxyphenyl)thiazol-2-yl)cyclohexyl)carbamate], for which the EC50 lay within 100 to 1000 nM.

`CC(C)OC(=O)N[C@H]1CC[C@H](c2ncc(-c3ccc(O)cc3S(N)(=O)=O)s2)CC1` [Compound 24, isopropyl (trans-4-(5-(4-hydroxy-2-sulfamoylphenyl)thiazol-2-yl)cyclohexyl)carbamate]: the EC50 is 100 to 1000 nM.

For the molecule `CC(C)OC(=O)N[C@H]1CC[C@H](c2ncc(-c3ccc(OCCNC(=O)OC(C)(C)C)cc3S(=O)(=O)NC(C)(C)C)s2)CC1` [Compound 25, isopropyl N-[trans-4-[5-[4-[2-(tert-butoxycarbonylamino)ethoxy]-2-(tert-butylsulfamoyl)phenyl]thiazol-2-yl]cyclohexyl]carbamate], the EC50 was 1000 to 10000 nM. Consider `CC(C)OC(=O)N[C@H]1CC[C@H](c2ncc(-c3ccc(OCCN)cc3S(=O)(=O)NC(C)(C)C)s2)CC1` [Compound 26, isopropyl (trans-4-(5-(4-(2-aminoethoxy)-2-(N-(tert-butyl)sulfamoyl)phenyl)thiazol-2-yl)cyclohexyl)carbamate], for which the EC50 lay within 1000 to 10000 nM. As for `CC(C)OC(=O)N[C@H]1CC[C@H](c2ncc(-c3ccc(OC(C)C)cc3S(=O)(=O)NC(C)(C)C)s2)CC1` [Compound 27, isopropyl (trans-4-(5-(2-(N-(tert-butyl)sulfamoyl)-4-isopropoxyphenyl)thiazol-2-yl)cyclohexyl)carbamate], the EC50 is 1000 to 10000 nM. For `COc1ccc(-c2cnc([C@H]3CC[C@H](NC(=O)OC(C)C)CC3)s2)c(S(=O)(=O)NC(C)(C)C)c1` [Compound 28, isopropyl (trans-4-(5-(2-(N-(tert-butyl)sulfamoyl)-4-methoxyphenyl)thiazol-2-yl)cyclohexyl)carbamate], the EC50 was over 10000 nM. Take `CC(C)OC(=O)N[C@H]1CC[C@H](c2ncc(-c3ccc(OCCN(C)C(=O)OC(C)(C)C)cc3S(=O)(=O)NC(C)(C)C)s2)CC1` [Compound 29, tert-butyl (2-(3-(N-(tert-butyl)sulfamoyl)-4-(2-(trans-4-((isopropoxycarbonyl)amino)cyclohexyl)thiazol-5-yl)phenoxy)ethyl)(methyl)carbamate]: the EC50 was 1000 to 10000 nM. As to `CC(C)OC(=O)N[C@H]1CC[C@H](c2ncc(-c3ccc(OCCN(C)C)cc3S(=O)(=O)NC(C)(C)C)s2)CC1` [Compound 30, isopropyl (trans-4-(5-(2-(N-(tert-butyl)sulfamoyl)-4-(2-(dimethylamino)ethoxy)phenyl)thiazol-2-yl)cyclohexyl)carbamate], the EC50 is over 10000 nM. For `COCCOc1ccc(-c2cnc([C@H]3CC[C@H](NC(=O)OC(C)C)CC3)s2)c(S(=O)(=O)NC(C)(C)C)c1` [Compound 31, isopropyl (trans-4-(5-(2-(N-(tert-butyl)sulfamoyl)-4-(2-methoxyethoxy)phenyl)thiazol-2-yl)cyclohexyl)carbamate], the EC50 lay within 1000 to 10000 nM. In the case of `CNCCOc1ccc(-c2cnc([C@H]3CC[C@H](NC(=O)OC(C)C)CC3)s2)c(S(=O)(=O)NC(C)(C)C)c1` [Compound 32, isopropyl (trans-4-(5-(2-(N-(tert-butyl)sulfamoyl)-4-(2-(methylamino)ethoxy)phenyl)thiazol-2-yl)cyclohexyl)carbamate], the EC50 is over 10000 nM. For `CC(C)COCc1ccc(-c2cnc([C@H]3CC[C@H](NC(=O)OC(C)C)CC3)s2)c(S(=O)(=O)NC(C)(C)C)c1` [Compound 33, isopropyl (trans-4-(5-(2-(N-(tert-butyl)sulfamoyl)-4-(isobutoxymethyl)phenyl)thiazol-2-yl)cyclohexyl)carbamate], the EC50 was in the range of 100 to 1000 nM. Regarding `CC(C)COCc1ccc(-c2cnc([C@H]3CC[C@H](NC(=O)OC4COC4)CC3)s2)c(S(=O)(=O)NC(C)(C)C)c1` [Compound 34, oxetan-3-yl trans-N-[4-[5-[2-(tert-butylsulfamoyl)-4-(isobutoxymethyl)phenyl]thiazol-2-yl]cyclohexyl]carbamate], the EC50 lay within 1000 to 10000 nM. On to `CCNS(=O)(=O)c1cc(C#N)ccc1-c1cnc([C@H]2CC[C@H](NC(=O)OC(C)C)CC2)s1` [Compound 36, isopropyl trans-N-[4-[5-[4-cyano-2-(ethylsulfamoyl)phenyl]thiazol-2-yl]cyclohexyl]carbamate], for which the EC50 lay in the range of 1000 to 10000 nM. In the case of `CC(C)OC(=O)N[C@H]1CC[C@H](c2ncc(-c3ccc(Nc4ncc[nH]4)cc3S(=O)(=O)NC(C)(C)C)s2)CC1` [Compound 38, isopropyl trans-N-[4-[5-[2-(tert-butylsulfamoyl)-4-(1H-imidazol-2-ylamino)phenyl]thiazol-2-yl]cyclohexyl]carbamate], the EC50 was under 100 nM. On to `CC(C)NC(=O)Cc1ccc(-c2cnc([C@H]3CC[C@H](NC(=O)OC(C)C)CC3)s2)c(S(=O)(=O)NC(C)(C)C)c1` [Compound 40, isopropyl trans-N-[4-[5-[2-(tert-butylsulfamoyl)-4-[2-(isopropylamino)-2-oxo-ethyl]phenyl]thiazol-2-yl]cyclohexyl]carbamate], for which the EC50 was under 100 nM.

Regarding `CC(C)NC(=O)Cc1ccc(-c2cnc([C@H]3CC[C@H](NC(=O)OC4COC4)CC3)s2)c(S(=O)(=O)NC(C)(C)C)c1` [Compound 41, oxetan-3-yl (trans-4-(5-(2-(N-(tert-butyl)sulfamoyl)-4-(2-(isopropylamino)-2-oxoethyl)phenyl)thiazol-2-yl)cyclohexyl)carbamate], the EC50 was in the range of 100 to 1000 nM. `CC(C)OC(=O)N[C@H]1CC[C@H](c2ncc(-c3ccc(Nc4ncco4)cc3S(=O)(=O)NC(C)(C)C)s2)CC1` [Compound 42, isopropyl (trans-4-(5-(2-(N-(tert-butyl)sulfamoyl)-4-(oxazol-2-ylamino)phenyl)thiazol-2-yl)cyclohexyl)carbamate]: the EC50 was under 100 nM. In the case of `CC(C)OC(=O)N[C@H]1CC[C@H](c2ncc(-c3ccccc3S(N)(=O)=O)s2)CC1` [Compound 44, isopropyl trans-N-[4-[5-(2-sulfamoylphenyl)thiazol-2-yl]cyclohexyl]carbamate], the EC50 fell in the range of 1000 to 10000 nM. `CCNS(=O)(=O)c1ccccc1-c1cnc([C@H]2CC[C@H](NC(=O)OC(C)C)CC2)s1` [Compound 45, isopropyl (trans-4-(5-(2-(N-ethylsulfamoyl)phenyl)thiazol-2-yl)cyclohexyl)carbamate]: the EC50 lay within 1000 to 10000 nM. Regarding `CC(C)OC(=O)N[C@H]1CC[C@H](c2ncc(-c3ccccc3S(=O)(=O)NC(C)(C)C)s2)CC1` [Compound 46, isopropyl (trans-4-(5-(2-(N-(tert-butyl)sulfamoyl)phenyl)thiazol-2-yl)cyclohexyl)carbamate], the EC50 is 1000 to 10000 nM. Consider `CCNS(=O)(=O)c1cc(C(=O)O)ccc1-c1cnc([C@H]2CC[C@H](NC(=O)OC(C)C)CC2)s1` [Compound 48, trans-3-(ethylsulfamoyl)-4-[2-[4-(isopropyloxycarbonyl-amino)cyclohexyl]thiazol-5-yl]benzoic acid], for which the EC50 was 1000 to 10000 nM. Then `CCNS(=O)(=O)c1cc(C(N)=O)ccc1-c1cnc([C@H]2CC[C@H](NC(=O)OC(C)C)CC2)s1` [Compound 49, isopropyl trans-N-[4-[5-[4-carbamoyl-2-(ethylsulfamoyl)phenyl]thiazol-2-yl]cyclohexyl]carbamate], with 100 to 1000 nM.
